Assay results as given in ChEMBL document CHEMBL1153136, “Novel benzoylpiperidine-based stearoyl-CoA desaturase-1 inhibitors: Identification of 6-[4-(2-methylbenzoyl)piperidin-1-yl]pyridazine-3-carboxylic acid (2-hydroxy-2-pyridin-3-ylethyl)amide and its plasma triglyceride-lowering effects in Zucker fatty rats” (Bioorg Med Chem Lett, 2010).
Converted amounts (≈) assume the structure as drawn. Values belong to the molecule of their own block, whether it stands above or below them. The source made the active and inactive calls. The rule behind the calls is not given here.

Assays:
Acyl-CoA desaturase 1 = target: T1, Acyl-CoA desaturase 1 (Mus musculus, UniProt P13516); experiment: Inhibition of Scd1 in mouse liver microsomes assessed as conversion of [14C]stearate to [14C]oleate pretreated for 10 mins measured after 60 mins; design: species or system Microsome
T1 sequence (P13516 whole entry): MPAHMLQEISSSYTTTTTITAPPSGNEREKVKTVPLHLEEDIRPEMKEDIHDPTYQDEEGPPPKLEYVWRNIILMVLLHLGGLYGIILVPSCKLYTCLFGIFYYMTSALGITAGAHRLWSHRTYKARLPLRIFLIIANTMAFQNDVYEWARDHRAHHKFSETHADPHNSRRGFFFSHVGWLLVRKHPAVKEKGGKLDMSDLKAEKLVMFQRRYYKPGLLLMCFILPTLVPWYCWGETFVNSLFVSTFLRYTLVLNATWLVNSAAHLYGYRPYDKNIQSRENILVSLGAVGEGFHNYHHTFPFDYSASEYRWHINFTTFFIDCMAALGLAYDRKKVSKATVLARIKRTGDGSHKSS

[1] = target: T2, Stearoyl-CoA desaturase (Homo sapiens) (UniProt O00767); experiment: Inhibition of human Scd1 assessed as conversion of [14C]stearate to [14C]oleate at 10 uM pretreated for 30 mins measured after 4 hrs
T2 sequence (whole entry): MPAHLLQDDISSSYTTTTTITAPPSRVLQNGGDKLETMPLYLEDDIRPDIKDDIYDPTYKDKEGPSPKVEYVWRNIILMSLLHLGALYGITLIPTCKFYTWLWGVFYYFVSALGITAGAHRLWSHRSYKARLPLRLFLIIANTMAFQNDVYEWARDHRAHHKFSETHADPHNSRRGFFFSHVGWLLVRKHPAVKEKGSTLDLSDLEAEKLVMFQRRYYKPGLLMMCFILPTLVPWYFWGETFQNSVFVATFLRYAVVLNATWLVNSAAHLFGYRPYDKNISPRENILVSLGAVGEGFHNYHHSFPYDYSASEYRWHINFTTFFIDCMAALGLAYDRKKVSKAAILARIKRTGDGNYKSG

Stearoyl-CoA desaturase [2] = target: T3, Stearoyl-CoA desaturase (Homo sapiens, UniProt O00767); experiment: Inhibition of Scd1 in human HEK293A cell microsomes assessed as conversion of [14C]stearate to [14C]oleate pretreated for 10 mins measured after 60 mins; design: species or system HEK293-A, Microsome
T3 sequence (O00767 whole entry): T2 sequence (whole entry)

Stearoyl-CoA desaturase [3] = target: T3, Stearoyl-CoA desaturase; experiment: Inhibition of human Scd1 expressed in HEK293A cells assessed as conversion of [14C]stearate to [14C]oleate pretreated for 30 mins measured after 4 hrs; type: cell-based, HEK293-A
Mus musculus = experiment: Inhibition of Scd1 in po dosed db/db mouse assessed as [14C]oleate to [14C]stearate ratio in liver administered 2 hrs before [14C]stearate challenge measured after 1 hr; type: functional; conditions: read-out: ID50 (the source's name)
[4] = Metabolic stability in mouse liver S9 fraction assessed as compound remaining after 30 mins; type: ADME, subcellular; conditions: read-out: Stability
[5] = Solubility in aqueous acidic solution at pH 1.2; type: physicochemical
[6] = Solubility in neutral solution at pH 6.8; type: physicochemical
[7] = Oral bioavailability in C57BL/6 mouse at 20 mg/kg; type: ADME, organism-based; conditions: in vivo
Rattus norvegicus [8] = experiment: Toxicity in Zucker fatty rat assessed as reduction of body weight at 30 mg/kg, po qd for 7 days; type: organism-based; design: dose 30 mg/kg, route oral; scale not given: the % may be the effect or the level left; conditions: in vivo, 168 h
Rattus norvegicus [9] = experiment: Reduction of plasma insulin level in Zucker fatty rat at 30 mg/kg, po qd for 7 days; type: functional, organism-based; design: dose 30 mg/kg
Rattus norvegicus [10] = experiment: Toxicity in Zucker fatty rat assessed as induction of narrow eye fissure at 30 mg/kg, po qd for 7 days; type: organism-based; design: dose 30 mg/kg, route oral; conditions: in vivo, 168 h
[11] = Half life in C57BL/6 mouse at 20 mg/kg, po; type: ADME, organism-based; design: dose 20 mg/kg, route oral; conditions: in vivo
Rattus norvegicus [12] = experiment: Toxicity in Zucker fatty rat assessed as induction of cutaneous abnormalities at 30 mg/kg, po qd for 7 days; type: organism-based; design: dose 30 mg/kg, route oral; conditions: in vivo, 168 h
[13] = Cmax in C57BL/6 mouse at 20 mg/kg, po; type: ADME, organism-based; design: dose 20 mg/kg, route oral; conditions: in vivo
[14] = AUC (0 to 8 hrs) in C57BL/6 mouse at 20 mg/kg, po; type: ADME, organism-based; design: time < 8 hr, dose 20 mg/kg, route oral; conditions: plasma
[15] = Clearance in C57BL/6 mouse at 5 mg/kg, iv; type: ADME, organism-based; design: dose 5 mg/kg, route intravenous; conditions: in vivo
Rattus norvegicus [16] = experiment: Reduction of plasma triglyceride level in po dosed Zucker fatty rat administered qd for 7 days; type: functional, organism-based
[17] = Half life in C57BL/6 mouse at 5 mg/kg, iv; type: ADME, organism-based; design: dose 5 mg/kg, route intravenous; conditions: in vivo
Rattus norvegicus [18] = experiment: Reduction of plasma glucose level in Zucker fatty rat at 30 mg/kg, po qd for 7 days; type: functional, organism-based; design: dose 30 mg/kg
Rattus norvegicus [19] = experiment: Reduction of plasma triglyceride level in Zucker fatty rat at 30 mg/kg, po qd for 7 days; type: functional; design: scale not given: the % may be the effect or the level left
[20] = Volume of distribution in C57BL/6 mouse at 5 mg/kg, iv; type: ADME, organism-based; design: dose 5 mg/kg, route intravenous; conditions: in vivo

SMILES: O=C(NCC(O)c1ccccc1)c1ccc(N2CCC(C(=O)c3ccc(F)cc3)CC2)nn1 (stereo unspecified)
IC50 (Acyl-CoA desaturase 1): 74 nM
inhibition [1]: 12%
IC50 (Stearoyl-CoA desaturase [2]): 118 nM
IC50 (Stearoyl-CoA desaturase [3]): 80 nM

SMILES: O=C(NCCc1ccccc1)c1ccc(N2CCN(C(=O)c3ccccc3C(F)(F)F)CC2)cc1
IC50 (Acyl-CoA desaturase 1): 150 nM
IC50 (Stearoyl-CoA desaturase [2]): 820 nM

SMILES: Cc1ccccc1C(=O)C1CCN(c2ccc(C(=O)NCC(O)c3ccsc3)nn2)CC1 (stereo unspecified)
ED50 (Mus musculus): 16 mg/kg
IC50 (Acyl-CoA desaturase 1): 3 nM
IC50 (Stearoyl-CoA desaturase [2]): 7 nM
IC50 (Stearoyl-CoA desaturase [3]): 21 nM

SMILES: Cc1ccccc1C(=O)C1CCN(c2ccc(C(=O)NCC(O)c3cccs3)nn2)CC1 (stereo unspecified)
ED50 (Mus musculus): 14 mg/kg
IC50 (Acyl-CoA desaturase 1): 7 nM
IC50 (Stearoyl-CoA desaturase [2]): 44 nM
IC50 (Stearoyl-CoA desaturase [3]): 25 nM

SMILES: O=C(NCC(O)c1ccccc1)c1ccc(N2CCC(C(=O)c3ccccc3OC(F)(F)F)CC2)nn1 (stereo unspecified)
remaining at 0.5 h [4]: 22%
IC50 (Acyl-CoA desaturase 1): 5 nM
inhibition [1]: < 5%
IC50 (Stearoyl-CoA desaturase [2]): 10 nM
solubility [5]: 83 µM (≈ 42.7 µg/mL)
IC50 (Stearoyl-CoA desaturase [3]): 103 nM
solubility [6]: < 0.5 µM

SMILES: O=C(NCC(O)c1ccccc1)c1ccc(N2CCC(C(=O)c3ccccc3C(F)(F)F)CC2)nn1 (stereo unspecified)
remaining at 0.5 h [4]: 47%
IC50 (Acyl-CoA desaturase 1): 2 nM
inhibition [1]: 9%
IC50 (Stearoyl-CoA desaturase [2]): 7 nM
solubility [5]: 84 µM (≈ 41.9 µg/mL)
IC50 (Stearoyl-CoA desaturase [3]): 14 nM
solubility [6]: < 0.5 µM

SMILES: O=C(NCCc1ccccc1)c1ccc(N2CCN(C(=O)c3ccccc3C(F)(F)F)CC2)cn1
IC50 (Acyl-CoA desaturase 1): 370 nM
IC50 (Stearoyl-CoA desaturase [2]): 250 nM

SMILES: Cc1ccccc1C(=O)C1CCN(c2ccc(C(=O)NCC(O)c3ccccn3)nn2)CC1 (stereo unspecified)
IC50 (Acyl-CoA desaturase 1): 95 nM
IC50 (Stearoyl-CoA desaturase [2]): 180 nM
IC50 (Stearoyl-CoA desaturase [3]): 390 nM

SMILES: Cc1ccccc1C(=O)C1CCN(c2ccc(C(=O)NCC(O)c3ccc(F)cc3)nn2)CC1 (stereo unspecified)
ED50 (Mus musculus): 14 mg/kg
IC50 (Acyl-CoA desaturase 1): 7 nM
IC50 (Stearoyl-CoA desaturase [2]): 5 nM
IC50 (Stearoyl-CoA desaturase [3]): 22 nM

SMILES: O=C(NCCc1ccccc1)c1ccc(N2CCN(C(=O)c3ccccc3C(F)(F)F)CC2)nc1
IC50 (Acyl-CoA desaturase 1): 194 nM
IC50 (Stearoyl-CoA desaturase [2]): 99 nM

Second part, led by results:

IC50 (Acyl-CoA desaturase 1): 52 nM
inhibition [1]: < 5%
IC50 (Stearoyl-CoA desaturase [2]): 311 nM
IC50 (Stearoyl-CoA desaturase [3]): 1050 nM
SMILES: COc1ccccc1C(=O)C1CCN(c2ccc(C(=O)NCC(O)c3ccccc3)nn2)CC1 (stereo unspecified)

IC50 (Acyl-CoA desaturase 1): 34 nM
IC50 (Stearoyl-CoA desaturase [2]): 187 nM
IC50 (Stearoyl-CoA desaturase [3]): 144 nM
SMILES: Cc1ccccc1C(=O)C1CCN(c2ccc(C(=O)NCC(O)c3ccncc3)nn2)CC1 (stereo unspecified)

IC50 (Acyl-CoA desaturase 1): 153 nM
inhibition [1]: < 5%
IC50 (Stearoyl-CoA desaturase [2]): 292 nM
IC50 (Stearoyl-CoA desaturase [3]): 108 nM
SMILES: O=C(NCC(O)c1ccccc1)c1ccc(N2CCC(C(=O)c3ccccc3)CC2)nn1 (stereo unspecified)

remaining at 0.5 h [4]: 1.1%
IC50 (Acyl-CoA desaturase 1): 37 nM
bioavailability [7]: 68%
half-life [11]: 54 min
IC50 (Stearoyl-CoA desaturase [2]): 28 nM
solubility [5]: > 100 µM
Cmax [13]: 6300 ng/mL
AUC(0-t) at 8 h [14]: 7800 ng·h/mL
clearance [15]: 29 mL/min/kg
IC50 (Stearoyl-CoA desaturase [3]): 43 nM
half-life [17]: 78 min
Vd [20]: 2.4 L/kg
solubility [6]: 29 µM (≈ 12.9 µg/mL)
SMILES: Cc1ccccc1C(=O)C1CCN(c2ccc(C(=O)NCC(O)c3cccnc3)nn2)CC1 (stereo unspecified)
ED50 (Mus musculus): 3 mg/kg
Activity (Rattus norvegicus [8]): 15%
Activity (Rattus norvegicus [9]): inactive
Activity (Rattus norvegicus [10]): Non-toxic
Activity (Rattus norvegicus [12]): Non-toxic
Activity (Rattus norvegicus [16]): Dose-dependent effect
Activity (Rattus norvegicus [18]): inactive
Activity (Rattus norvegicus [19]): 56%

remaining at 0.5 h [4]: 58%
inhibition [1]: < 5%
bioavailability [7]: 6%
half-life [11]: 48 min
solubility [5]: 88 µM (≈ 39.1 µg/mL)
Cmax [13]: 300 ng/mL
AUC(0-t) at 8 h [14]: 500 ng·h/mL
clearance [15]: 42 mL/min/kg
half-life [17]: 36 min
Vd [20]: 0.9 L/kg
solubility [6]: 3 µM (≈ 1.33 µg/mL)
SMILES: Cc1ccccc1C(=O)C1CCN(c2ccc(C(=O)NCC(O)c3ccccc3)nn2)CC1 (stereo unspecified)
ED50 (Mus musculus): 12 mg/kg

IC50 (Acyl-CoA desaturase 1): 5 nM
IC50 (Stearoyl-CoA desaturase [2]): 6 nM
IC50 (Stearoyl-CoA desaturase [3]): 11 nM
SMILES: Cc1ccccc1C(=O)C1CCN(c2ccc(C(=O)NCC(O)c3cccc(F)c3)nn2)CC1 (stereo unspecified)
ED50 (Mus musculus): 14 mg/kg

IC50 (Acyl-CoA desaturase 1): 9 nM
IC50 (Stearoyl-CoA desaturase [2]): 22 nM
IC50 (Stearoyl-CoA desaturase [3]): 60 nM
SMILES: Cc1ccccc1C(=O)C1CCN(c2ccc(C(=O)NCC(O)c3ccccc3F)nn2)CC1 (stereo unspecified)
ED50 (Mus musculus): 17 mg/kg
